In PubChem BioAssay (NCI):
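Cultured in 96-well plates, cells were exposed to test compound for 48 hours across five concentrations. TGI denotes the concentration required for complete inhibition of growth.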

Tests used:
Test in all cases: NCI tumour cell line growth inhibition, 48 h
786-0 renal = test system: 786-0 renal
BT-549 breast = test system: BT-549 breast
PC-3 prostate = test system: PC-3 prostate
T-47D breast = test system: T-47D breast
DMS 114 small cell lung = test system: DMS 114 small cell lung
HOP-18 NSCLC = test system: HOP-18 NSCLC
KM20L2 colon = test system: KM20L2 colon
M19-MEL melanoma = test system: M19-MEL melanoma
RXF-631 renal = test system: RXF-631 renal
P388 leukemia = test system: P388 leukemia
P388/ADR leukemia = test system: P388/ADR leukemia
SN12K1 renal = test system: SN12K1 renal

SMILES | TGI (PC-3 prostate) [µM] | TGI (T-47D breast) [µM] | TGI (DMS 114 small cell lung) [µM] | TGI (HOP-18 NSCLC) [µM] | TGI (KM20L2 colon) [µM] | TGI (M19-MEL melanoma) [µM] | other results
NC(=O)NC(CC(=O)O)C(=O)O (centres undefined) | > 100 | > 100 |  |  |  |  | TGI (786-0 renal): > 100 µM; TGI (BT-549 breast): > 100 µM
COc1cc(C2c3cc4c(cc3OC3(O)COC(=O)C23)OCO4)cc(OC)c1OC (centres undefined) |  |  | > 100 | > 100 | 54.3 | > 100 | TGI (RXF-631 renal): > 100 µM
CCOc1ccc(C2=C(Cl)c3cc(OC)c(OC)cc3C2Cl)cc1 (centres undefined) |  |  | 56.2 | > 100 | > 100 | > 100 | 
COc1ccc2c(C)cc(N/N=C/c3sccc3C)nc2c1 | 31.9 | 33.6 |  |  |  |  | TGI (BT-549 breast): 28.9 µM
CC(=O)Nc1ccc(C2=N/C(=C\c3ccc(Cl)c(Cl)c3)C(=O)O2)cc1 |  |  | > 100 | > 100 | > 100 | > 100 | TGI (RXF-631 renal): > 100 µM
COc1ccc(N2C(=O)C3c4[nH]c5ccccc5c4C4CCCCCCCC4C3C2=O)cc1 (centres undefined) | > 10 | > 10 |  |  |  |  | 
COc1cc(C2C(Cl)C(=O)N2NC(=O)c2ccc(NC(C)=O)cc2)cc(Br)c1O (centres undefined) |  |  |  | > 100 |  | > 100 | 
CCCCC(NC(=O)CC)C(=O)O (centres undefined) |  |  | > 100 | > 100 | > 100 | > 100 | TGI (P388 leukemia): > 100 µM; TGI (P388/ADR leukemia): > 100 µM; TGI (SN12K1 renal): > 100 µM
CN1C[C@H]2[C@@H](C1=O)[C@H](c1ccc([N+](=O)[O-])cc1)ON2C | > 100 | > 100 |  |  |  |  | 
